{"source": "patent US20230277464A1", "about": "“TABLET DOSAGE FORMS FOR LIPID-BASED DRUG DELIVERY SYSTEMS” (ABITEC Corporation, priority 2022, published 2023)", "test": "Visual dissolution of ibuprofen in SEDDS pre-concentrate", "assay_type": "physicochemical", "method": "The medium chain fatty acid esters and oil were weighed into a 2000 mL glass beaker. Subsequently, a magnetic stirrer was added to the beaker. The medium chain fatty acid esters and oil were blended to uniformity for 5 minutes with the magnetic stirrer set at 5. […] […] The pre-concentrate was observed 24 hours later to ensure that the ibuprofen was still dissolved.", "data": [{"compound": "CC(C)Cc1ccc(C(C)C(=O)O)cc1", "note": "(centres unmarked) [Ibuprofen, ibuprofen]", "values": [{"measurement": "Time ibuprofen remained dissolved in the pre-concentrate", "setting": "room temperature", "value": "at least 24 hours"}, {"measurement": "Ibuprofen dissolved in the pre-concentrate components", "setting": "with heating", "value": "about 15.0%"}]}]}
